Earlier results as cited in patent US20260295002A1, “GASTROINTESTINAL RETENTIVE FORMULATIONS OF ECHINOCANDINS” (The Cleveland Clinic Foundation, priority 2023, published 2026).
Where a name gives a salt, the structure may show the parent alone.

Conditions: background statement

Row | SMILES | oral bioavailability
1 | CCC(C)CC(C)CCCCCCCCC(=O)N[C@H]1C[C@@H](O)[C@@H](NCCN)NC(=O)[C@@H]2[C@@H](O)CCN2C(=O)[C@H]([C@H](O)CCN)NC(=O)[C@H]([C@H](O)[C@@H](O)c2ccc(O)cc2)NC(=O)[C@@H]2C[C@@H](O)CN2C(=O)[C@H]([C@@H](C)O)NC1=O (some centres unmarked) [Caspofungin] | poor oral bioavailability
2 | CC[C@H](C)C[C@H](C)CCCCCCCCC(=O)N[C@H]1C[C@@H](O)[C@@H](NCCN)NC(=O)[C@@H]2[C@@H](O)CCN2C(=O)[C@H]([C@H](O)CCN)NC(=O)[C@H]([C@H](O)[C@@H](O)c2ccc(O)cc2)NC(=O)[C@@H]2C[C@@H](O)CN2C(=O)[C@H]([C@@H](C)O)NC1=O [caspofungin acetate, 1-[(4R,5S)-5-[(2-aminoethyl)amino]-N2-(10,12-dimethyl-1-oxotetradecyl)-4-hydroxy-L-ornithine]-5-[(3R)-3-hydroxy-L-ornithine]pneumocandin B0 diacetate (salt)] | poor oral bioavailability
